Values quoted from earlier work, collected in patent US20120214870A1, “METHODS FOR DIAGNOSIS AND TREATMENT OF CHRONIC FATIGUE SYNDROME” (UNIVERSITY OF SOUTH AUSTRALIA, priority 2009, published 2012).
Entries after “also recorded” stand apart in the source; their conditions may differ.

Key:
CPT-I = settings: Yoon et al., 2003; Amengual et al., 2008

SMILES: CC(=O)O[C@H](CC(=O)[O-])C[N+](C)(C)C [C2, acetyl-L-carnitine]
- mental fatigue and attention concentration (CFS patients; supplementation (Vermeulen & Scholte, 2004; Malaguarnera et al. 2008)): significant improvements

SMILES: C[N+](C)(C)C[C@H](O)CC(=O)[O-] [LC, L-carnitine]
- CPT-I expression or activity (CPT-I): increase; also recorded: upregulate
- fatigue severity in CFS patients (CFS patients; after 2 months of supplementation (Plioplys and Plioplys, 1997)): significantly reduce

SMILES: CCC(=O)O[C@H](CC(=O)[O-])C[N+](C)(C)C [C3, propionyl-L-carnitine]
- general and physical fatigue (CFS patients; administration (Vermeulen & Scholte, 2004)): significant improvements

SMILES: CC1=C(/C=C/C(C)=C/C=C/C(C)=C/C(=O)O)C(C)(C)CCC1 [all-trans retinoic acid, reference compound]
- CPT-I expression or activity (CPT-I): upregulate
